From ChEMBL document CHEMBL1145763, “Design, synthesis and photochemical properties of caged bile acids” (Bioorg Med Chem Lett, 2003)
In brackets after ≈: the same amount, converted by molar mass.

assay: Solubility in 100 mM Tris pH(8.5)/ 30% PEG 6000/200 mM NaOAc; format: physicochemical

Row | solubility [µM] | SMILES
1 | 1000 (≈ 604 µg/mL) | COc1cc(CO[C@@H]2CC[C@@]3(C)C(C2)C[C@@H](O)[C@H]2[C@@H]4CC[C@H]([C@H](C)CCC(=O)O)[C@@]4(C)[C@@H](O)C[C@@H]23)c([N+](=O)[O-])cc1OC (some centres undefined)
2 | 4000 (≈ 2340 µg/mL) | C[C@H](CCC(=O)NCC(=O)O)[C@H]1CC[C@H]2[C@@H]3[C@H](O)CC4C[C@H](OCc5ccccc5[N+](=O)[O-])CC[C@]4(C)[C@H]3CC[C@]12C (some centres undefined)
3 | 5000 (≈ 2640 µg/mL) | C[C@H](CCC(=O)O)[C@H]1CC[C@H]2[C@@H]3[C@H](O)CC4C[C@H](OCc5ccccc5[N+](=O)[O-])CC[C@]4(C)[C@H]3CC[C@]12C (some centres undefined)
4 | 2000 (≈ 1090 µg/mL) | C[C@H](CCC(=O)O)[C@H]1CC[C@H]2[C@@H]3[C@H](O)CC4C[C@H](OCc5ccccc5[N+](=O)[O-])CC[C@]4(C)[C@H]3C[C@H](O)[C@]12C (some centres undefined)
